Laboratory results published in PubChem BioAssay (NCI).
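Five concentrations, 48 hours, 96-well plates. The concentration for full growth arrest is given as TGI.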

Legend:
Experiment in all cases: NCI-60 cell line screen, 48 h
[1] = tested on: IGROV1 ovarian
[2] = tested on: SN12C renal
[3] = tested on: A549 NSCLC
[4] = tested on: HOP-92 NSCLC
[5] = tested on: NCI-H23 lung
[6] = tested on: UO-31 renal
[7] = tested on: M14 melanoma
[8] = tested on: EKVX NSCLC
[9] = tested on: SF-295 CNS
[10] = tested on: CCRF-CEM leukemia
[11] = tested on: NCI-H226 lung
[12] = tested on: RXF 393 renal
[13] = tested on: TK-10 renal
[14] = tested on: DU-145 prostate
[15] = tested on: SR leukemia
[16] = tested on: NCI-H522 lung
[17] = tested on: CAKI-1 renal
[18] = tested on: SW-620 colon
[19] = tested on: PC-3 prostate
[20] = tested on: A498 renal
[21] = tested on: K-562 leukemia
[22] = tested on: SK-MEL-5 melanoma
[23] = tested on: HS 578T breast
[24] = tested on: MCF7 breast
[25] = tested on: SNB-19 CNS
[26] = tested on: MOLT-4 leukemia
[27] = tested on: NCI-H460 lung
[28] = tested on: HT29 colon
[29] = tested on: UACC-62 melanoma
[30] = tested on: UACC-257 melanoma
[31] = tested on: OVCAR-3 ovarian
[32] = tested on: ACHN renal
[33] = tested on: KM12 colon
[34] = tested on: HCC-2998 colon
[35] = tested on: T-47D breast
[36] = tested on: U251 CNS
[37] = tested on: OVCAR-4 ovarian
[38] = tested on: HCT-116 colon
[39] = tested on: MDA-MB-231 breast
[40] = tested on: SK-OV-3 ovarian
[41] = tested on: MDA-MB-435
[42] = tested on: 786-0 renal
[43] = tested on: SK-MEL-28 melanoma
[44] = tested on: HOP-62 NSCLC
[45] = tested on: HL-60(TB) leukemia
[46] = tested on: SNB-75 CNS
[47] = tested on: SF-268 CNS
[48] = tested on: SF-539 CNS
[49] = tested on: BT-549 breast
[50] = tested on: OVCAR-8 ovarian
[51] = tested on: MDA-N
[52] = tested on: COLO 205 colon
[53] = tested on: OVCAR-5 ovarian
[54] = tested on: MALME-3M melanoma
[55] = tested on: LOX IMVI melanoma
[56] = tested on: NCI/ADR-RES ovarian
[57] = tested on: SK-MEL-2 melanoma
[58] = tested on: HCT-15 colon
[59] = tested on: RPMI-8226 leukemia

## C[C@]12Cc3cnn(-c4ccc(F)cc4)c3NC1CC[C@@H]1C2CC[C@@]2(C)C1CC[C@@H]2O (some centres not stated)
[1]
  TGI: 28.5 µM
[2]
  TGI: 30.4 µM
[3]
  TGI: 30.7 µM
[4]
  TGI: 24.7 µM
[5]
  TGI: 18.7 µM
[6]
  TGI: 22.5 µM
[7]
  TGI: 23.1 µM
[8]
  TGI: 25.4 µM
[9]
  TGI: 4.38 µM
[10]
  TGI: 32.6 µM
[11]
  TGI: 28 µM
[12]
  TGI: 5.09 µM
[13]
  TGI: 34 µM
[14]
  TGI: 27.8 µM
[15]
  TGI: 12.8 µM
[16]
  TGI: 25.4 µM
[17]
  TGI: 49.4 µM
[18]
  TGI: 13.6 µM
[19]
  TGI: 21.9 µM
[20]
  TGI: 23 µM
[21]
  TGI: 24 µM
[22]
  TGI: 15 µM
[23]
  TGI: 26.5 µM
[24]
  TGI: 36.7 µM
[25]
  TGI: 56.1 µM
[26]
  TGI: 16.3 µM
[27]
  TGI: 16.6 µM
[28]
  TGI: 3.81 µM
[29]
  TGI: 23.3 µM
[30]
  TGI: 19.2 µM
[31]
  TGI: 46.3 µM
[32]
  TGI: 29.4 µM
[33]
  TGI: 18.3 µM
[34]
  TGI: 18.3 µM
[35]
  TGI: 17 µM
[36]
  TGI: 21.7 µM
[37]
  TGI: 27.5 µM
[38]
  TGI: 16.6 µM
[39]
  TGI: 46.9 µM
[40]
  TGI: 67.9 µM
[41]
  TGI: 20.8 µM
[42]
  TGI: 11.9 µM
[43]
  TGI: 27.2 µM
[44]
  TGI: 26.1 µM
[45]
  TGI: 11.8 µM
[46]
  TGI: 13.3 µM
[47]
  TGI: 37.9 µM
[48]
  TGI: 8.56 µM
[49]
  TGI: 13.4 µM
[50]
  TGI: 27.9 µM
[51]
  TGI: 21.8 µM
[52]
  TGI: 10.3 µM
[53]
  TGI: 30.5 µM
[54]
  TGI: 23.7 µM

## CCN(CC)CCCn1c(=O)c2ccccc2n2c3c(=O)n(C)c(=O)n(C)c3nc12
[1]
  TGI: 26.2 µM
[2]
  TGI: 18.6 µM
[3]
  TGI: 10.4 µM
[4]
  TGI: 16.4 µM
[5]
  TGI: 21.2 µM
[6]
  TGI: 17.7 µM
[7]
  TGI: 25.1 µM
[8]
  TGI: 36.6 µM
[9]
  TGI: 15.6 µM
[10]
  TGI: 35 µM
[11]
  TGI: 14.3 µM
[12]
  TGI: 45.8 µM
[13]
  TGI: 38.9 µM
[14]
  TGI: 10.6 µM
[15]
  TGI: 3.37 µM
[16]
  TGI: 21.9 µM
[17]
  TGI: 15.1 µM
[18]
  TGI: 29.1 µM
[19]
  TGI: 23 µM
[55]
  TGI: 15.4 µM
[21]
  TGI: 33.6 µM
[22]
  TGI: 15 µM
[23]
  TGI: 45.6 µM
[24]
  TGI: > 100 µM
[25]
  TGI: 35.3 µM
[26]
  TGI: 8.92 µM
[27]
  TGI: 4.06 µM
[28]
  TGI: 24 µM
[29]
  TGI: 24.1 µM
[30]
  TGI: 26.2 µM
[31]
  TGI: 33.6 µM
[32]
  TGI: 4.17 µM
[33]
  TGI: 19.8 µM
[56]
  TGI: 47.2 µM
[34]
  TGI: 22 µM
[35]
  TGI: 49.8 µM
[36]
  TGI: 23.3 µM
[37]
  TGI: 22.6 µM
[38]
  TGI: 21.6 µM
[39]
  TGI: 30.1 µM
[40]
  TGI: 14.7 µM
[41]
  TGI: 27.5 µM
[42]
  TGI: 18.6 µM
[43]
  TGI: 30.2 µM
[44]
  TGI: 15.1 µM
[57]
  TGI: 35 µM
[45]
  TGI: 9.08 µM
[46]
  TGI: 18.6 µM
[47]
  TGI: 23 µM
[48]
  TGI: 22 µM
[49]
  TGI: 17.6 µM
[50]
  TGI: 23.4 µM
[58]
  TGI: 25.4 µM
[51]
  TGI: 28 µM
[52]
  TGI: 20.6 µM
[53]
  TGI: 32.9 µM
[59]
  TGI: 49.7 µM
[54]
  TGI: 21.4 µM
